Source: patent US4829069A, “4-Thioquinazoline derivatives as antiulcer agents” (Nisshin Flour Milling Co., Ltd., priority 1987, dated 1989)

Assays:
[1] = Reversion test
[2] = Toxicity, LD50 (P.O.); conditions: in vivo, po
[3] = system: indomethacin induced ulcer; assay: Antiulcer activity: suppression of indomethacin induced ulcer; format: in vivo, mouse (ddy series male mice); conditions: 100 mg/kg to the stomach 30 minutes before 20 mg/kg indomethacin p.o.; mean ulcer index vs control group, 4 hours after indomethacin
Experimental: The antiulcer activity of the compounds of this invention was determined by the following method. Four-week-old ddy series male mice were used as the test animals after they were fasted for 24 hours. Each test compound suspended in a 1% gum arabic solution was administered to the stomach of each mouse at a dose of 100 mg/kg, and then, after 30 minutes, 20 mg/kg of indomethacin was administered orally. Four hours after the administration of indomethacin, the stomach of mouse was extirpated and the length of ulcers was measured. Then, the ulcer index was determined by the total sum of the scores as calculated in Table 1. The mean ulcer index of each group was calculated and the suppression rate against the control group in terms of difference in the mean ulcer index was determined.

[4] = background; cited from earlier work

Structure (SMILES)	reversion test [1]	LD50 [2] [mg/kg]	Suppression rate of indomethacin induced ulcer, 100 mg/kg, p.o. [3]	side effects [4]
c1ccc(CSc2ncnc3ccccc23)nc1 [4-(2-Pyridylmethylthio)-quinazoline]	negative	> 1000	94	–
c1ccc2nc(CSc3ncnc4ccccc34)ccc2c1 [4-(2-Quinolylmethylthio)-quinazoline]	–	–	70	–
c1ccc2c(SCc3ccncc3)ncnc2c1 [4-(4-Pyridylmethylthio)-quinazoline]	–	–	92	–
CCN(CC)CCSc1ncnc2ccccc12 [4-[2-(Diethylamino)ethylthio]-quinazoline]	–	–	49	–
COc1cc(CSc2ncnc3ccccc23)ncc1C [4-[(4-Methoxy-5-methylpyridin-2-yl)methylthio]-quinazoline]	–	–	81	–
Cc1ccnc(CSc2ncnc3ccccc23)c1 [4-[(4-Methylpyridin-2-yl)methylthio]-quinazoline]	–	–	70	–
CN/C(=N/CCSCc1nc[nH]c1C)NC#N [Cimetidine, reference compound]	–	–	40	gynecomatism
